Values joined by “and” are separate entries in the source; they are usually repeats but may differ in a detail not shown here. Identical values can stand only once. Like-named read-outs stand apart in the source and are kept apart here.
Assays:
[1] = tested on: experimental endolymphatic hydrops; experiment: Endolymphatic hydrops decompression effect: IR-L, IR-S and regression lines in the operated ear; format: in vivo, guinea pigs; details: active agent 2.8 g/kg oral, alone or with additive; for Regression line IR-S vs IR-L: Y-intercept / Regression line IR-S vs IR-L: slope: operated ears, 3 hours after; for IR-L (%) increase ratio of the length of Reissner's membrane / IR-S (%) increase ratio of the cross-sectional area of the scala media: operated side, perfusion 3 hours after
Method: The endolymphatic hydrops-decompression effect of saccharides or sugar alcohols was evaluated by assaying as below in triplicate. Firstly, guinea pigs received the surgical obliteration of the endolymphatic sac in the left ear to prepare “experimental model animals with endolymphatic hydrops”. The surgical obliteration of the endolymphatic sac was carried out by burning the extraskeletal portion in the endolymphatic sac with a bipolar electrocoagulator. An endolymphatic sac plays an important role in the absorption of endolymphatic fluid. The inhibition of absorption of endolymphatic fluid was caused by burning the endolymphatic sac to prepare an experimental endolymphatic hydrops. Those hydrops are progressively formed. The size of hydrops becomes constant 2 weeks to month after the surgery and maintained for several months. In detail, see Non-patent Reference 8 for the surgery.
After 1 month, they were divided into 3 groups: Group 2-1 (groups 1-6), 60 animals; Group 2-2 (groups 7-10), 40 animals; and Group 2-3 (groups 11-20), […]. The animals in Group 2-1 received saccharides or sugar alcohols alone (Reference Example 5). The animals in Group 2-2 orally received saccharides or sugar alcohols added polysaccharides. The animals in Group 2-3 received other combinations of saccharides or sugar alcohols added polysaccharides. Animals were sacrificed after the oral administration and the observation and the assessment the gastrointestinal condition, and observed the morphological change of the cochlea mainly in the operated side (left side), in particular of the endolymphatic hydrops decompression effect.
I were obtained left sides of the temporal bones immediately following fixation and kept them in 10% formalin solution for 10 days or more. They were decalcified with 5% trichloroacetic acid and dehydrated with alcohol in increasing concentration, then embedded in paraffin and celloidin. The prepared blocks were cut serially in the horizontal plane. The mid-modiolar sections were stained in hematoxylin and eosin and studied under a light microscope. For the quantitative assessment of changes of the endolymphatic space, the change ratios of the length of Reissner's membrane and the cross-sectional area of the scala media in each turn were measured from the mid-modiolar sections of the cochlea.
From these parameters, the increase ratios (%) of the length of Reissner's membrane (IR-L) and the cross-sectional area (%) of the scala media (IR-S) of a total of four turns were calculated according to the equation as described below:
The increase ratio of the length of Reissner's membrane (IR-L)=100×Σ(Lx−L*x)/ΣL*x (x: first, second, third and fourth turns)
The increase ratio of the cross-section area of the scala media (IR-S)=100×Σ(Sx−S*x)/ΣS*x (x: first, second, third and fourth turns)
Since almost no difference is shown in the regression lines of each group, it cannot be understood that there is the decompression effect of erythritol alone. When endolymphatic hydrops is formed, the cross-sectional area of scala media and the length of Reissner's membrane will increase. It can be assumed from FIG. 1 that there is statistically a primary correlation between both of them in the operated side in the control group. The regression lines are; IR-S (distilled water)=4.011+1.212*IR-L (distilled water); R2=0.987, IR-S (1 hour after)=5.409+1.1*IR-L (1 hour after); R2=0.903, IR-S (2 hours after)=1.125+0.992*IR-L (2 hours after); R2=0.98, IR-S (3 hours after)=2.407+1.309*IR-L (3 hours after); R2=0.974, IR-S (6 hours after)=7.36+1.147*IR-L (6 hours after); R2=0.895, IR-S (12 hours after)=8.089+1.152*IR-L (12 hours after); R2=0.918.
The difference of decompression effect on endolymphatic hydrops depending on dose of pectin added and time-course of the decompression effect can hardly determined by comparing and analyzing the average and standard deviation of IR-L and IR-S in the operated side in each groups. […]

[2] = tested on: guinea pigs excreting normal feces; experiment: Antidiarrheal effect: observation of feces after oral administration of saccharides or sugar alcohols with or without polysaccharides (Example 1); format: in vivo
Method: The criteria for analyzing the conditions of feces (hardness, shape and spaces of feces in the intestine) are as shown in Table 2:
The hardness and microscopic findings of feces from the group administered with distilled water were assessed as “Normal” scoring 3, the feces having normal shape and the shape could rather easily change by pushing with fingers were assessed as “Slightly soft” scoring 2, those of which the shape had already changed or it could quite easily change by pushed with fingers were assessed as “Soft” scoring 1, and those of which the shape is muddy or watery or of no shape were assessed “Muddy” scoring 0. To be precese, there are no watery feces because of the nature of diets and thus the muddy feces correspond to watery and muddy feces in human.
Since the muddy feces comprise large content of water, they induce the high abdominal pressure and the flatulence and distension. […] In the case of gas generation, it appears that noxious symptom such as the flatulence and distension are synergistically deteriorated. Therefore, we assessed not only based on the hardness of feces, but also the size, smoothness of the surface and amount of feces.
In these experiments, I observed is the diarrhea caused by saccharides or sugar alcohols and antidiarrhreal effect of saccharides. Guinea pigs orally received saccharides or sugar alcohols, for example tetrose such as erythritol, pentose such as xylitol or xylose, hexose such as isosorbitol or the like in combination with or without polysaccharides for observation of the feces up to 6 hours after the administration.
Guinea pigs (body weight 280 to 320 g, normal feces) were divided into four groups: for Group 1-a, xylitol alone (Reference Example 1), or xylitol and xanthan gum or pectin; for Group 1-b, xylose alone (Reference Example 2), xylose and xanthan gum or pectin; for Group 1-c, erythritol alone (Reference Example 3), erythritol and pectin, erythritol and xanthan gum, or erythritol, pectin and natural aluminum silicate gel or calcium carbonate; and for Group 1-d, isosorbitol alone (Reference Example 4), or isosorbitol and xanthan gum or pectin were orally administered, respectively. The compounds are dissolved in distilled water and 8 ml/kg of said solution were administered as a single dose.
The feces were observed during 6 hours after the administration. When the animals fell into the most serious condition, the hardness and shape of the feces from said animals were assessed as the effect by saccharides or sugar alcohols in the animals.

[3] = tested on: guinea pigs of normal Prayer's reflex; details: cited from earlier work; for Plasma AVP: continuous subcutaneous administration
[4] = active agent 1.4 g/kg oral, within 6 hours
[5] = active agent 2.1 g/kg oral, within 6 hours
[6] = active agent 2.8 g/kg oral, alone or with additive of the label
[7] = active agent 2.8 g/kg oral, alone or with additives of the label, most serious condition within 6 hours
[8] = saccharide or sugar alcohol 2.8 g/kg oral, alone or with additive, feces observed for 6 hours

OC[C@@H](O)[C@H](O)[C@@H](O)CO [Xylitol, xylitol]
Regression line IR-S vs IR-L: Y-intercept [1]: 2.371
Regression line IR-S vs IR-L: slope [1]: 1.208
IR-L (%) increase ratio of the length of Reissner's membrane [1]: 48.6 ± 40.3%
IR-S (%) increase ratio of the cross-sectional area of the scala media [1]: 60.1 ± 48.9%
Hardness of feces: Muddy (number of animals) [2, 4]: 0
Hardness of feces: Normal (number of animals) [2, 4]: 5
Hardness of feces: Slightly soft (number of animals) [2, 4]: 0
Hardness of feces: Soft (number of animals) [2, 4]: 0
Hardness of feces: Muddy (number of animals) [2, 5]: 0
Hardness of feces: Normal (number of animals) [2, 5]: 4
Hardness of feces: Slightly soft (number of animals) [2, 5]: 1
Hardness of feces: Soft (number of animals) [2, 5]: 0
Time after administration of the peak (most serious) diarrhea [2, 6]: Three to four hours after the administration
Time after administration when diarrhea / softening of feces started [2, 6]: 2 h
Time after administration when feces recovered to (almost) normal [2, 6]: 6 h
Hardness of feces: Muddy (number of animals) [2, 7]: 3
Hardness of feces: Normal (number of animals) [2, 7]: 0
Hardness of feces: Slightly soft (number of animals) [2, 7]: 1
Hardness of feces: Soft (number of animals) [2, 7]: 1

NC(=O)CC[C@@H]1NC(=O)[C@H](Cc2ccccc2)NC(=O)[C@H](Cc2ccc(O)cc2)NC(=O)[C@@H](N)CSSC[C@@H](C(=O)N2CCC[C@H]2C(=O)N[C@@H](CCCN=C(N)N)C(=O)NCC(N)=O)NC(=O)[C@H](CC(N)=O)NC1=O [AVP, arginine vasopressin]
Plasma AVP ([3]; AVP 0.2 mU/kg/min): 2.2 ± 0.4 pg/mL
Increase ratio (%) of the cross-sectional area of the scala media ([3]; AVP 0.2 mU/kg/min): 4.4 ± 0.7%
Plasma AVP ([3]; AVP 0.4 mU/kg/min): 3.5 ± 1.8 pg/mL
Increase ratio (%) of the cross-sectional area of the scala media ([3]; AVP 0.4 mU/kg/min): 10.4 ± 1.8%
Plasma AVP ([3]; AVP 1.0 mU/kg/min): 14.0 ± 3.9 pg/mL
Increase ratio (%) of the cross-sectional area of the scala media ([3]; AVP 1.0 mU/kg/min): 17.4 ± 7.9%
Formation of endolymphatic hydrops ([3]; AVP 1 mU/kg/minute, continuous, mini-pump subcutaneously): apparently produced endolymphatic hydrops

O=C[C@H](O)[C@@H](O)[C@H](O)CO [Xylose, xylose]
Regression line IR-S vs IR-L: Y-intercept [1]: 1.197
Regression line IR-S vs IR-L: slope [1]: 1.364
IR-L (%) increase ratio of the length of Reissner's membrane [1]: 29.7 ± 21.3%
IR-S (%) increase ratio of the cross-sectional area of the scala media [1]: 41.7 ± 30.1%
Abdominal distension / gas by inspections and palpations [2, 6]: mild or moderate flatulence and distension
Hardness of feces: Muddy (number of animals) [2, 7]: 1
Hardness of feces: Normal (number of animals) [2, 7]: 0
Hardness of feces: Slightly soft (number of animals) [2, 7]: 1
Hardness of feces: Soft (number of animals) [2, 7]: 3

OC[C@@H](O)[C@@H](O)[C@H](O)[C@@H](O)CO [Sorbitol, sorbitol]
Hardness of feces 0 (Muddy): number of animals [2, 8]: 2 and 3
Hardness of feces 1 (Soft): number of animals [2, 8]: 2
Hardness of feces 3 (Normal): number of animals [2, 8]: 0

— patent publication US8445461B2, “Pharmaceutical composition for meniere's disease” (Setsuko Takeda, priority 2007, dated 2013)
